# In patent publication US9260473B2, “Bivalent multifunctional ligands targeting Aβ oligomers as treatment for Alzheimer's disease” (Virginia Commonwealth University, priority 2010, dated 2016):
# Tests used:
# [1] = tested on: MC65 cells; experiment: Cytotoxicity assay in MC65 cells (MTS, +TC/−TC); type: cell-based, human
# Source text: Protective effects of 14 on AβOs-induced cytotoxicity in MC65 cells and differentiated human neuroblastoma SH-SY5Y cells. […] To further verify whether 14 can protect cells from extracellular AβOs-induced cytotoxicity, all trans-retinoic acid differentiated human SH-SY5Y cells were employed. […] This may further indicate that while both 1 and 14 can bind to AβOs, CM/LR anchorage of 14 can increase its accessibility to intracellular target AβOs. Since CM/LR are crucial for many aspects of cell signaling and functions, 14 was further evaluated for its potential cytotoxicity in mouse spleen and natural killer (NK) cells.
# Cytotoxicity assay in MC65 cells. MC65 cells were seeded in 96-well plates (4×10^4 cells/well) at 37° C., 5% CO2 for 24 hrs. The medium was removed and washed with PBS twice. Opti-MEM and test compounds were added under +TC and −TC conditions. The plates were incubated at 37° C., 5% CO2 for 72 hrs, then 20 uL CellTiter 96 AQueous One Solution (Promega, Madison, Wis.) were added to each well and the plates were incubated at 37° C., 5% CO2 for 2-4 hrs. The plates were read at 490 nm using FlexStation III plate reader (Molecular Devices). The blank with only test compounds in Opti-MEM was set up as background control for all of the tested concentrations. Each data point was averaged from six replicates and the experiments were independently repeated at least three times.
# [2] = tested on: AβOs; experiment: Western blot assay of AβOs formation in MC65 cells (6E10 antibody); type: cell-based, human; settings: 10 μM, 24 hrs after removal of TC
# Source text: Inhibition of AβOs production by designed BMAOIs. […] The whole cell assay is a composite of not only Aβ oligomerization inhibition but also permeability, stability and other factors will validate the accessibility and function of our BMAOIs. MC65 is a human neuroblastoma cell line that conditionally expresses C99, the C-terminus fragment of APP using tetracycline (TC) as transgene suppressor.^38 Upon removal of TC, these cells can produce intracellular Aβ aggregates including small AβOs. […] All BMAOIs were first evaluated at a single concentration of 10 μM. Candidate compounds with inhibitory activities at this concentration were further evaluated in a dose-dependent manner in the following assays. […]
# Western blot assay. […] Pellet was lysed by sonication in 1× lysis buffer (62.5 mM Tris base, pH6.8, 2% SDS, 50 mM DTT, 10% glycerol, 0.1% bromphenol blue, and […] each chymostatin, leupeptin, aprotinin, pepstatin, and soybean trypsin inhibitor) and protein level was determined using Coomassie Protein Assay Reagent (Pierce, Rockford, Ill.). […]
# [3] = tested on: AβOs; experiment: Immunocytochemistry assay of AβOs in MC65 cells (A11 antibody); type: cell-based, human; settings: 10 μM, 24 hrs after removal of TC
# Method: MC65 cells were treated with the indicated compounds (10 μM) immediately after the removal of TC. After 24 hrs, the cells were fixed and immunofluorescently stained for AβOs, CM/LR, and nucleus and imaged with a Leica TCS-SP2 AOBS confocal laser scanning microscope. Five areas were examined.
# Immunocytochemistry assay. MC65 cells were plated onto Lab-Tee chamber slides (1×10^4 cells/well). After 24 hrs incubation at 37° C. and 5% CO2, Opti-MEM was added (with or without TC) and followed by test compounds. MC65 cells were incubated for 24 hrs. MC65 cells were rinsed 3× with PBS and incubated with Alexa 488-conjugated CTX-B (10 ug/mL) for 15 min on ice. After rinsing once with ice-cold PBS, cells were fixed for 30 min with 4% paraformaldehyde. MC65 cells were permeabilized for 30 min with 0.1% Triton X 100. Then MC65 cells were stained with A11 rabbit antibody followed by anti-rabbit Alexa 568 (1:500). Finally MC65 cells were treated with DAPI (5 ug/mL) and mounted with Vectashield Mounting Media. Cell fluorescence was analyzed by a Leica TCS-SP2 AOBS confocal laser scanning microscope equipped with blue diode, Argon, and 3 HeNe (lasers as well as a spectrophotometer based detection system with variable detector windows) using excitation lines at 355 nm, 488 nm, and 568 nm for DAPI, Alexa 488-conjugated CTX-B, and Alexa Fluor 568 donkey anti-rabbit IgG. […]
# [4] = target: T1, Aβ42 (Homo sapiens, UniProt P05067); experiment: Aβ42 oligomerization inhibition assay (Western blot); type: biochemical; settings: Aβ42 5 μM, compound 20 μM, 4 hrs at 37° C.
# T1 construct: Aβ42 was obtained from American Peptide, Inc. (Sunnyvale, Calif.); purchased American Peptide, Inc. (Sunnyvale, Calif.)
# Method: In order to confirm 14 can bind to AβOs, the inhibition of Aβ42 oligomerization was performed and assessed using Western blot analysis as described in literature^29 in order to investigate binding interactions of 14 with Aβ42 and the CM/LR of MC65 cells. Briefly, Aβ42 (5 μM) was incubated with or without compounds (20 μM), then samples were analyzed by Western blot using 6E10 antibody.
# Aβ42 oligomerization inhibition assay. An aliquot of Aβ42 (0.045 mg) was dissolved in 20 μL of DMSO and diluted in Ham's F-12 media without phenol red (Caisson's Laboratory, Inc., Utah). […] After incubation, the samples (50 μL) were spun down at 14,000×g for 10 min. The supernatant (20 μL) was mixed with an equal part of Tricine sample buffer without reducing agents (Bio-Rad). The unaggregated Aβ42 control was not incubated at 37° C., and mixed with sample buffer (no centrifuging) and stored at −80° C. before it was electrophoresed. Samples (25 μL) were electrophoresed on a 10-20% Tris-Tricine gel, transferred to PVDF membrane, and blocked with 10% nonfat milk in PBS for 30 min. […] The proteins were visualized by Western Blot Chemiluminescence Reagent (NEN Life Science Products, Boston, Mass.).
# [5] = tested on: SH-SY5Y cells; experiment: Cytotoxicity assay in differentiated SH-SY5Y cells treated with AβOs; type: cell-based, human; settings: AβOs 1 μM
# Method: Cytotoxicity assay in differentiated SH-SY5Y cells. SH-SY5Y cells were plated at 10,000 cells/well in type 1 collagen coated 96-well plates (Invitrogen) and were differentiated in Opti-MEM supplemented with 2% B-27 (Invitrogen) and 10 μM all-trans-retinoic acid for 7 days. The medium was removed and replaced with fresh maintenance medium. Freshly prepared Aβ42 oligomers in Ham's F-12 medium (1 μM) was added to cells for 48 hrs at 37° C. with or without test compounds. After treatment, 20 uL CellTiter 96 AQueous One Solution (Promega, Madison, Wis.) were added to each well and the plates were incubated at 37° C., 5% CO2 for 2-4 hrs. The plates were read at 490 nm in FlexStation III plate reader (Molecular Devices). Each data point was averaged from six replicates and the experiments were independently repeated at least three times.
# [6] = tested on: intracellular oxidative stress; experiment: DCFH-DA antioxidation assay in MC65 cells; type: cell-based, human; settings: −TC, 24 hrs
# Method: DCFH-DA antioxidation assay. MC65 cells were seeded in 96-well plates (4×10^4 cells/well). After incubation at 37° C., 5% CO2 for 24 hrs, the medium was removed and washed with PBS. Opti-MEM and test compounds were added (+TC, −TC, and blank with only test compounds). MC65 cells were incubated at 37° C., 5% CO2 for 24 hrs. Then DCFH-DA in Opti-MEM was added to each well (final DCFH-DA concentration was 25 uM) and incubate at 37° C., 5% CO2 for 30 min. The medium was removed and replaced with fresh opti-MEM and plates were read for fluorescence intensity at 485 nm (excitation)/530 nm (emission) using FlexStation III plate reader (Molecular Devices).
# T1 sequence (P05067 672-713 limits assumed): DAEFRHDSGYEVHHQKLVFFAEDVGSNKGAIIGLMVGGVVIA
structure (smiles),measurement,setting,value
"CC(=O)N[C@@H](CS)C(=O)O [NAC, N-acetylcysteine]",rescue of MC65 cells from AβOs-induced cytotoxicity,[1]; −TC,48%
"COc1cc(/C=C/C(=O)CC(=O)/C=C/c2ccc(O)c(OC)c2)ccc1O [compound 1, curcumin, reference compound]",inhibition of the formation of AβOs (Western blot),[2],did not exhibit inhibition
same,formation of AβOs (A11 immunocytochemistry),[3],slightly suppressed
same,inhibition of oligomerization of Aβ42,[4],inhibited the oligomerization of Aβ42
same,protection of SH-SY5Y cell viability from AβOs,"[5]; 48 hrs, 16 μM",not at 16 μM
same,protection of SH-SY5Y cell viability from AβOs,"[5]; 48 hrs, 2, 4, and 8 μM",moderate protective activities
same,toxic effects on MC65 cell viability in the presence of TC,"[1]; +TC, tested concentrations, 72 hrs, MTS",no toxic effects
same,protective effects on MC65 cell viability upon removal of TC,"[1]; −TC, 72 hrs, MTS",minimal protective effects
same,suppression of intracellular oxidative stress (DCFH-DA fluorescence),[6],suppressed the intracellular oxidative stress in a dose-depndent manner
"Cc1c(C)c2c(c(C)c1O)CCC(C)(C(=O)O)O2 (stereo not shown) [trolox, 6-hydroxy-2,5,7,8-tetramethyl chroman-2-carboxylic acid]",rescue of MC65 cells from AβOs-induced cytotoxicity,"[1]; −TC, 32 μM",completely rescued
